Source: patent US11148998B2, “Dimethyl-nonatetraenyl-trimethyl-cyclohexyl compounds and uses thereof” (The Regents of the University of Michigan, priority 2017, dated 2021)

Key:
rhino mouse skin [1] = assay: Rhino mouse topical treatment: skin histology (horn-filled utriculi, epidermal thickness, inflammation); assay type: in vivo; conditions: for inflammatory response / inflammatory cell infiltrate in histological sections (in words) / Epidermal thickness / Utriculus number / skin structure in histology (dermal thickness, utriculi, necrosis, infiltration) / Inflammatory index: 21 days; for Inflammatory index: scored 0 to 4+
Source text: FIGS. 12A-C: Efficacy of retinoids at normalizing structure of rhino mouse skin after topical treatment for 21 days.
FIGS. 13A-C: Dose related effect of Example 2 on rhino mouse skin.
The rhinomouse model is an industry-standard pre-clinical model for evaluation of retinoids for anti-acne activity. The mice can be treated topically over a course of days with the desired compound (either formulated or in liquid solvent). During the course of treatment, the animals can be evaluated grossly for skin irritation. At the end of the treatment phase, the animals are euthanized. Skin from treated sites can be evaluated for efficacy—reduction in the number of horn-filled utriculi—and for histological evidence of inflammation.
(§1) As a control, Tretinoin-0.1% was used. […] This is a commonly-prescribed anti-acne medicine.
One day after the last treatment, animals were euthanized. The animals were injected with 7 ml 10% buffered formalin after euthanasia. 15 minutes later the treated area on the back of the mouse was removed and cut into 8 pieces. Every other piece was taken, so four pieces of skin were mounted in one cassette and fixed for histology. An extra piece of skin from a non-treated area was also evaluated.
Hematoxylin and eosin stained sections were evaluated microscopically for epidermal thickness with measurements made in the inter-follicular regions at 4 representative sites per tissue strip.
The number of horn-filled utriculi was determined by direct counting in the entire section of skin. Each of the four sections per biopsy was used for determining the number of utriculi. Section lengths were measured as a way to normalize findings. Typically, the section of skin varied from 16-20 mm.
Slides were examined microscopically and inflammation was scored on a 0 to 4+ basis. A score of zero indicated no inflammation while increasing collection of inflammatory cells was identified with increasing score. Slides were also evaluated to determine if inflammation was confined to the dermis or whether there was epidermal inflammation. Dermal inflammation was assessed to determine if inflammatory cells were scattered throughout the dermis or whether small abscesses were also present. Finally, the inflammatory lesions were evaluated to determine whether they consisted of primarily mononuclear cells, granulocytic cells or both. A similar scale has been used previously in the assessment of skin irritation.
At the end of the in-life portion of the study, mice were euthanized by CO2 overdose. Hematoxylin and eosin-stained histological sections from each mouse in the control, ATRA-treated and Compound 2-treated groups were evaluated with regard to the number of horn-filled utriculi, epidermal thickness, and inflammation. Briefly, the epidermis of control mice consisted of a thin epidermis with large numbers of horn-filled utriculi (98+10 per 20 mm of epidermal linear length). […] Both the ATRA-treated mouse (top right panel) the Compound 2 treated skin (bottom panel) show both much thickened […] and disappearance of utriculi. […] There were large numbers of inflammatory cells in the dermis. Microabscesses could be seen in places, and migration of inflammatory cells into the epidermis was also evident. The infiltrate consisted of both mononuclear cells and granulocytes. […] The three other experimental retinoids were also examined along with Compound 2. […] In FIG. 13 it can be seen that during the dosing period 0.1% of Compound 2 led to skin thickening, but incomplete resolution of the utricali, whereas at 0.3% the utricali were more fully resolved.

rhino mouse skin [2] = assay: Rhino mouse topical treatment: gross skin irritation (modified Draize scale); assay type: in vivo; conditions: for gross skin appearance / irritation: topical daily for 21 days, photographed Day 22, ATRA as 35 mg of 0.1% cream, Examples in DMSO
Protocol: FIGS. 10A-C: Lack of Dose-related skin irritation after 21 day topical treatment of rhino mice with 100 μL DMSO control (10A) and 100 μL DMSO containing Example 2 at 0.1 (10B) and 0.3% concentrations (10C).
FIG. 11. […] The cumulative irritation score is a modified version of the Draize irritation scale, and the animals were assessed daily by an assessor who was blinded to the treatment given each mouse.
Rhino mice (HRS\J hr^rhhr^rh)) were obtained from Jackson Laboratories. Animals were recent weanlings; at this stage in the life of the rhinomouse, the phenotype (i.e., skin with numerous horn-filled utriculi) is well expressed and continues to be for several weeks. Both males and females were included. Animals were divided into treatment groups. Once in the laboratory, the mice were kept in temperature- and humidity-controlled rooms. All procedures during the in-life portion of the study were carried out in facilities of the Unit for Laboratory Animal Medicine (ULAM) at the University of Michigan—which is an AAALAC-certified institution. All procedures were carried out with approval by the University of Michigan Institutional Animal Care and Use Committee (IACUC).
as §1
Animals were housed individually during the treatment phase of the study. During the treatment phase, animals were assessed daily for overall health, and for signs of skin irritation. The Draize scale was used to assess skin irritation. The Draize scale evaluates the parameters of erythema and edema. Each parameter was scored between 0 and 4+ with 0 indicating no difference from control mice and 4+ indicating maximum erythema or edema. In addition, animals were assessed for dryness/flaking/cracking (single score). The overall irritation score was a compilation of the three parameters in all mice from a treatment group. During the treatment phase, animals were weighed weekly.
FIG. 1 left provides a summation of the skin irritation response in the different treatment groups. In control mice, there was little evidence of skin irritation at any time throughout the study. […] The initial spike in irritation was followed by a dip and then secondary rise. This is consistent with what is typically seen with ATRA. […] Neither the control mouse nor the Compound 1 & 2 treated mice show visible signs of irritation in the skin. In contrast, skin from the ATRA-treated mouse is red, dry and flaky. Small cracks in the skin can be seen and there is significant edema.

[3] = topical, concentration not given

SMILES	inflammatory response / inflammatory cell infiltrate in histological sections (in words) (rhino mouse skin [1]; [3])	number of utriculi compared to control (in words) (rhino mouse skin [1]; [3])	gross skin appearance / irritation (rhino mouse skin [2])	Epidermal thickness (rhino mouse skin [1]; 0.1% topical)	Utriculus number (rhino mouse skin [1]; 0.1% topical)	skin structure in histology (dermal thickness, utriculi, necrosis, infiltration) (rhino mouse skin [1]; 0.1% topical)	Inflammatory index (rhino mouse skin [1]; 0.1% topical)	Epidermal thickness (rhino mouse skin [1]; 0.3% topical)	Utriculus number (rhino mouse skin [1]; 0.3% topical)	Inflammatory index (rhino mouse skin [1]; 0.3% topical)	signs of serious skin irritation (rhino mouse skin [2]; 0.1% and 0.3% in DMSO, topical, 21 days)	cumulative irritation score (modified Draize scale) (rhino mouse skin [2]; 0.1% topical daily for 21 days)
CC1=C(/C=C/C(C)=C\C=C\C(C)=C\C(=O)N(C)CC(=O)C(C)(C)C)C(C)(C)CCC1 [Example 1, (2E,4E 6Z,8E)-N-(3,3-dimethyl-2-oxobutyl)-N,3,7-trimethyl-9-(2,6,6-trimethylcyclohex-1-en-1-yl)nona-2,4,6,8-tetraenamide]	did not produce an inflammatory response	reduced the number of utriculi as compared to control	normal rhino mouse appearance	–	–	–	–	–	–	–	–	–
CC1=C(/C=C/C(C)=C\C=C\C(C)=C\C(=O)N(C)CC(=O)c2ccccc2)C(C)(C)CCC1 [Example 2, (2E,4E 6Z,8E)-N,3,7-trimethyl—N-(2-oxo-2-phenylethyl)-9-(2,6,6-trimethylcyclohex-1-en-1-yl)nona-2,4,6,8-tetraenamide]	little inflammatory cell infiltrate	–	normal rhino mouse appearance	45 ± 8	7 ± 5 per 20 mm of epidermal linear length	normalization of dermal thickness, but still many structural remnants of utriculi	1.1 ± 0.6	44 ± 6	5 ± 3 per 20 mm of epidermal linear length	0.9 ± 0.4	did not show any signs of serious skin irritation at either dose	–
CC1=C(/C=C/C(C)=C/C=C/C(C)=C/C(=O)O)C(C)(C)CCC1 [ATRA, all-trans retinoic acid, reference compound]	intense inflammatory cell infiltrate	–	considerable skin irritation, along with excessive skin flaking	68 ± 17	2 ± 2 per 20 mm of epidermal linear length	overall dermal layer is considerably thicker, and the utriculi have gone, the dermal layer has large necrotic areas, and is heavily infiltrated with activated leukocytes and macrophages	–	–	–	–	–	far more irritant
